Measurements as given in ChEMBL document CHEMBL1141848, “Prenylagaramides A and B, new cyclic peptides from two strains of oscillatoria agardhii” (J Nat Prod, 1999).
The source made the active and inactive calls. The rule behind the calls is not given here. Residues, ends and D or L forms follow the SMILES beside them. *: point of attachment. Prenyl = CC(C)=CC*

Legend:
[1] = Inhibition of chymotrypsin
[2] = biological target: Plasminogen (Homo sapiens) (UniProt P00747); assay: Inhibition of plasmin
Sequence of Plasminogen (Homo sapiens) (P00747 97-580 limits assumed): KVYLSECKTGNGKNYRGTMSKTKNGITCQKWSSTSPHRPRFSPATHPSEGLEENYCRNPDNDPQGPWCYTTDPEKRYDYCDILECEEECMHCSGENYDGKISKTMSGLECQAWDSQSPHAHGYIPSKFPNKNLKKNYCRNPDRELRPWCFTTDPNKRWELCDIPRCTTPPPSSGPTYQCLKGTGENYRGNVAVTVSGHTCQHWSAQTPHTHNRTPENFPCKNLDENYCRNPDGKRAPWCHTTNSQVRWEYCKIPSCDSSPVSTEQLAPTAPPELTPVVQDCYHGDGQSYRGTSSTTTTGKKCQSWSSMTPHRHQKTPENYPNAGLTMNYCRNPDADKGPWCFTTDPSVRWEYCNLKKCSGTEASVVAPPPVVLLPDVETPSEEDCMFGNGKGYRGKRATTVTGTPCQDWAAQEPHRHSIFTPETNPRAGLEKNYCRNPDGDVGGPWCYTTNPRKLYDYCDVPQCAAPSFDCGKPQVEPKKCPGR
Sequence of Plasminogen (Homo sapiens) (P00747 581-810 limits assumed): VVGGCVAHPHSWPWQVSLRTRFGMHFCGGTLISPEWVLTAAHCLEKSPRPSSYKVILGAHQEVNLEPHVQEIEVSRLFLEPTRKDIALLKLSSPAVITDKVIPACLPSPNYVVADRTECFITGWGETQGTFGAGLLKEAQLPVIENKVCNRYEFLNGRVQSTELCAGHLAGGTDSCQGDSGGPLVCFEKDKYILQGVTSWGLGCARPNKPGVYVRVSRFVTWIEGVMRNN

[3] = Inhibition of trypsin
[4] = biological target: Cytosol aminopeptidase (Homo sapiens) (UniProt P28838); assay: Inhibition of leucine amino peptidase
Sequence of Cytosol aminopeptidase (Homo sapiens) (P28838 whole entry): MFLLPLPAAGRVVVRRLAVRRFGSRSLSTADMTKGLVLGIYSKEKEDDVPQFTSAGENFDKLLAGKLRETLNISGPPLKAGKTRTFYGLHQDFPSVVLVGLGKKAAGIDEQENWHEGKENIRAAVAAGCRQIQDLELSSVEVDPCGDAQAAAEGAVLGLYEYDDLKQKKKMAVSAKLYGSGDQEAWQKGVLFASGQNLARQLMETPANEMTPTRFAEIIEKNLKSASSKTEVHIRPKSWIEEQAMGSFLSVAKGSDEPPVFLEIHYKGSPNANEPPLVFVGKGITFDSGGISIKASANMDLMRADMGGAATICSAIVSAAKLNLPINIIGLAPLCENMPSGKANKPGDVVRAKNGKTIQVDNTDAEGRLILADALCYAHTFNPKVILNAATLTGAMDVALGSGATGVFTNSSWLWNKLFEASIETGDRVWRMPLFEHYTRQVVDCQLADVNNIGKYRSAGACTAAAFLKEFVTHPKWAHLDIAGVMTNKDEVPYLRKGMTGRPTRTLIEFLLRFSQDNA

Papain (Carica papaya) = biological target: T1, Papain (Carica papaya) (UniProt P00784); assay: Inhibition of papaya papain
T1 sequence (whole entry): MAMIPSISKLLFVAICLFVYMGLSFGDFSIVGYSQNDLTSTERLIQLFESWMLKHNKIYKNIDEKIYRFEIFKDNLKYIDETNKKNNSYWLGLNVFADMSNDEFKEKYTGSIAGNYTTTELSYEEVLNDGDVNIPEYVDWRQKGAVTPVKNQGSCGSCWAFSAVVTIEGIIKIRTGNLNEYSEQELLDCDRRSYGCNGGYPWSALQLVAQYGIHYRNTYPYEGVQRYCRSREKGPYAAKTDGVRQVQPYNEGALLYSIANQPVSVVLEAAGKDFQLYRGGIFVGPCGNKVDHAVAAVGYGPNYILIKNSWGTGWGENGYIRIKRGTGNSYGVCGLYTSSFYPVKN

[5] = biological target: Prothrombin (Homo sapiens) (UniProt P00734); assay: Inhibition of thrombin
P388 = assay: Cytotoxicity against mouse P388 cells; format: functional, cell-based
[6] = Inhibition of elastase

Activity [1] | Activity [2] | Activity [3] | Activity [4] | Activity (Papain (Carica papaya)) | Activity [5] | Activity [6] | Structure (SMILES) | Activity (P388)
inactive | inactive | inactive | inactive | inactive | inactive | inactive | CC(C)=CCOc1ccc(C[C@@H]2NC(=O)[C@@H]3CCCN3C(=O)[C@H](CC(N)=O)NC(=O)[C@H](Cc3ccccc3)NC(=O)[C@H](Cc3ccccc3)NC(=O)[C@H](CCC(=O)O)NC(=O)CNC(=O)[C@H]([C@@H](C)O)NC(=O)CNC2=O)cc1 (cyclo(EFFNPY(Prenyl)GTG)) | inactive
inactive | inactive | inactive | inactive | inactive | inactive | inactive | CC[C@H](C)[C@@H]1NC(=O)[C@@H]2CCCN2C(=O)[C@H](Cc2ccc(O)cc2)NC(=O)[C@H](CC(C)C)NC(=O)[C@H](Cc2ccc(OCC=C(C)C)cc2)NC(=O)[C@@H]2CCCN2C(=O)[C@H](CC(N)=O)NC1=O (cyclo(INPY(Prenyl)LYP)) | inactive
